Experimental data: US20100029643A1 (ASTRAZENECA AB, priority 2006, published 2010)

Molecular target: T1, Edg-1/S1P1 receptor (Homo sapiens, UniProt P21453)
T1 construct: expressed in transfected cells; host or cells: human osteogenic sarcoma U2OS cells: Edg-1 Transfluor U2OS WT Clone #37 (assay I), Edg-1 Transfluor U2OS Clone #3 (assay II)
Assay: In vitro cell based receptor activation assay - Transfluor assay (assay I or II; beta-arrestin GFP relocalization after S1P stimulation)
Conditions: for inhibition at 3.7 µM: at 3.70 μM (titrated from top concentration 100 μM); for inhibition at 3.5 µM: at 3.50 μM (titrated from top concentration 10 μM); for EC50: one or the other of the two Transfluor assays, Edg-1 Transfluor U2OS cells, S1P ligand
Summary of the method: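 U2OS cells overexpressing S1P1 with a beta-arrestin-GFP construct were pre-incubated with compound for 15 min at room temperature, then stimulated with S1P for 45 min at 37 °C. In assay I, final S1P was 375 nM or 750 nM and compound was a 9-point 3-fold series from 100 μM, in 1% DMSO. Cells were fixed and Hoechst-stained, GFP relocalization was imaged, and EC50 values were fitted.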

T1 sequence (P21453 whole entry): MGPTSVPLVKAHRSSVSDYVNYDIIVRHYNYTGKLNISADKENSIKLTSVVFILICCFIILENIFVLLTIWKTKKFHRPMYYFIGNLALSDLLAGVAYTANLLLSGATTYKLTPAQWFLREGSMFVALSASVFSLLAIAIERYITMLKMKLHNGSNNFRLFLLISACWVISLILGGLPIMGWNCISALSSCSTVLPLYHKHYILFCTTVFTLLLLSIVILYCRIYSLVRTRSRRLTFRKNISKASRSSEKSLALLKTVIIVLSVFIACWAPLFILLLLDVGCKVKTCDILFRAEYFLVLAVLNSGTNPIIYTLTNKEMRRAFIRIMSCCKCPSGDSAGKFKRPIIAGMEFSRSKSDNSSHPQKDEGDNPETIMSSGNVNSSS

| Structure (SMILES) | inhibition at 3.7 µM [%] | inhibition at 3.5 µM [%] | also measured |
| --- | --- | --- | --- |
| CCn1c([C@@H](C)NS(=O)(=O)c2ccc(F)c(F)c2F)nc2ccc(C(F)(F)F)cc21 [Example 34] | – | 95.3 | – |
| CCn1c([C@@H](C)NS(=O)(=O)c2ccc(C(=O)OC)n2C)nc2ccc(C(F)(F)F)cc21 [Example 40, (R)-methyl 5-(N-(1-(1-ethyl-6-(trifluoromethyl)-1H-benzo[d]imidazol-2-yl)ethyl)sulfamoyl)-1-methyl-1H-pyrrole-2-carboxylate] | – | 97.5 | – |
| CCn1c([C@@H](C)NS(=O)(=O)c2ccc(Cl)cc2)nc2cc3c(cc21)OCO3 [Example 63, (R)-4-Chloro-N-[1-(5-Ethyl-5H-[1,3]dioxolo[4′,5′;4,5]-benzo[1,2-d]imidazol-6-yl)-ethyl]benzenesulfonamide] | – | 93.9 | – |
| CCn1c([C@@H](C)NS(=O)(=O)c2ccc(Cl)cc2)nc2ccc(C(F)(F)F)cc21 [Example 9, 4-Chloro-N-{(1R)-1-[1-ethyl-6-(trifluoromethyl)-1H-benzimidazol-2-yl]ethyl} benzene-sulfonamide] | – | 84.8 | – |
| CCn1c(C(C)NS(=O)(=O)c2ccc(Cl)cc2)nc2cnccc21 (stereo not shown) [Example 13, 4-Chloro-N-[1-(1-ethyl-1H-imidazo[4,5-c]pyridin-2-yl)ethyl]benzene sulfonamide] | 72.8 | – | – |
| CCn1c([C@@H](C)NS(=O)(=O)c2ccccc2)nc2ccc(C(F)(F)F)cc21 [Example 50, N-{(1R)-1-[1-Ethyl-6-(trifluoromethyl)-1H-benzimidazol-2-yl]ethyl}benzenesulfonamide] | – | – | inhibition at 3.3 µM (at 3.30 μM (run with this as top concentration)): 92.1% |
| CC(NS(=O)(=O)c1ccc(Cl)cc1)c1nc2ccccc2n1CC1CC1 (stereo not shown) [Example 18, 4-Chloro-N-{1-[1-(cyclopropylmethyl)-1H-benzimidazol-2-yl]ethyl}-benzenesulfonamide] | 100 | – | EC50: 0.896 µM |
| CC(NS(=O)(=O)c1ccc(Cl)cc1)c1nc2ccccc2n1C1CC1 (stereo not shown) [Example 21, 4-Chloro-N-[1-(1-cyclopropyl-1H-benzimidazol-2-yl)ethyl]benzenesulfonamide] | 39 | – | EC50: 5.15 µM |
| CCn1c([C@@H](C)NS(=O)(=O)c2c(C)noc2C)nc2ccc(C(F)(F)F)cc21 [Example 37, N-{(1R)-1-[1-Ethyl-6-(trifluoromethyl)-1H-benzimidazol-2-yl]ethyl}-3,5-dimethylisoxazole-4-sulfonamide] | 58.3 | – | – |
| CCn1c([C@@H](C)NS(=O)(=O)c2ccc(Cl)c3cccnc23)nc2ccc(C(F)(F)F)cc21 [Example 52, 5-Chloro-N-{(1R)-1-[1-ethyl-6-(trifluoromethyl)-1H-benzimidazol-2-yl]ethyl}-quinoline-8-sulfonamide] | 89 | – | – |
| CCn1c(C(C)(C)NS(=O)(=O)c2ccc(Cl)cc2)nc2ccccc21 [Example 16, 4-Chloro-N-[1-(1-ethyl-1H-benzoimidazol-2-yl)-1-methyl-ethyl]-benzenesulfonamide] | – | 96.2 | – |
| CCn1c([C@@H](C)NS(=O)(=O)c2cnc(C)n2C)nc2ccc(C(F)(F)F)cc21 [Example 32, N-{(1R)-1-[1-Ethyl-6-(trifluoromethyl)-1H-benzimidazol-2-yl]ethyl}-1,2-dimethyl-1H-imidazole-5-sulfonamide] | 66.5 | – | – |
| CCn1c(C(C)NS(=O)(=O)c2ccc(Cl)cc2)nc2ccncc21 (stereo not shown) [Example 14, 4-Chloro-N-[1-(3-ethyl-3H-imidazo[4,5-c]pyridin-2-yl)ethyl] benzene sulfonamide] | 72.8 | – | – |
| CCn1c([C@@H](C)NS(=O)(=O)c2ccc(Cl)cc2)nc2cccc(OC)c21 [Example 11, 4-Chloro-N-[(1R)-1-(1-ethyl-7-methoxy-1H-benzimidazol-2-yl)ethyl]benzene-sulfonamide] | 82 | – | – |

The next lines start with results.

| inhibition at 3.7 µM [%] | inhibition at 3.5 µM [%] | Structure (SMILES) | also measured |
| --- | --- | --- | --- |
| 88.9 | – | CCn1c([C@@H](C)NS(=O)(=O)c2ccc(Cl)cc2)nc2cnc(Cl)cc21 [Example 97, 4-chloro-N-[(1R)-1-(6-chloro-1-ethyl-1H-imidazo[4,5-c]pyridin-2-yl)ethyl]benzenesulfonamide] | – |
| – | 90.3 | CCn1c([C@@H](C)NS(=O)(=O)c2ccc(F)cc2)nc2cnccc21 [Example 104, 4-Fluoro-N-[(1R)-1-(1-ethyl-1H-imidazo[4,5-c]pyridin-2-yl)ethyl]benzenesulfonamide] | – |
| – | 83.1 | CCn1c(C(C)NS(=O)(=O)c2ccc(N)nc2)nc2ccc(C(F)(F)F)cc21 (stereo not shown) [Example 170, 6-amino-N-(1-(1-ethyl-6-(trifluoromethyl)-1H-benzo[d]imidazol-2-yl)ethyl)pyridine-3-sulfonamide] | – |
| – | 82.9 | CCn1c(C(C)(C)NS(=O)(=O)c2ccc(Cl)cc2)nc2ccc(C(F)(F)F)cc21 [Example 136, 4-Chloro-N-{1-[1-ethyl-6-(trifluoromethyl)-1H-benzimidazol-2-yl]-1-methylethyl}benzenesulfon-amide] | – |
| – | 93.3 | CCn1c([C@@H](C)NS(=O)(=O)c2ccc(C(N)=O)nc2)nc2ccc(C(F)(F)F)cc21 [Example 106, (R)-5-(N-(1-(1-Ethyl-6-(trifluoromethyl)-1H-benzo[d]imidazol-2-yl)ethyl)sulfamoyl)picolinamide] | – |
| – | 73.3 | CCn1c(C(C)NS(=O)(=O)c2ccc(=O)[nH]c2)nc2ccc(C(F)(F)F)cc21 (stereo not shown) [Example 171, N-(1-(1-ethyl-6-(trifluoromethyl)-1H-benzo[d]imidazol-2-yl)ethyl)-6-oxo-1,6-dihydropyridine-3-sulfonamide] | – |
| 91.6 | – | CCn1c([C@@H](C)NS(=O)(=O)c2ccc(Cl)cc2)nc2cc(Br)ccc21 [Example 81, N-[(1R)-1-(5-Bromo-1-ethyl-1H-benzimidazol-2-yl)ethyl]-4-chlorobenzenesulfonamide] | – |
| – | 95 | CCn1c([C@@H](C)NS(=O)(=O)c2ccc(S(C)(=O)=O)cc2)nc2ccc(C(F)(F)F)cc21 [Example 131, (R)-N-(1-(1-Ethyl-6-(trifluoromethyl)-1H-benzo[d]imidazol-2-yl)ethyl)-4-(methylsulfonyl)-benzenesulfonamide] | – |
| – | 93 | CCn1c([C@@H](C)NS(=O)(=O)c2ccc(C#N)nc2)nc2cnc(C(F)(F)F)cc21 [Example 148, (R)-6-Cyano-N-(1-(1-ethyl-6-(trifluoromethyl)-1H-imidazo[4,5-c]pyridin-2-yl)ethyl)pyridine-3-sulfonamide] | – |
| – | 90.3 | CCn1c([C@@H](C)NS(=O)(=O)c2cncc(Br)c2)nc2ccc(C(F)(F)F)cc21 [Example 162] | – |
| – | 90.7 | CCn1c([C@@H](C)NS(=O)(=O)c2ccc(Cl)cc2)nc2cnc(OC)cc21 [Example 144, (R)-4-Chloro-N-(1-(1-ethyl-6-methoxy-1H-imidazo[4,5-c]pyridin-2-yl)ethyl)benzenesulfonamide] | – |
| – | 94.4 | CCn1c([C@@H](C)NS(=O)(=O)c2ccc(Cl)cc2)nc2ccc(CO)cc21 (stereo in doubt) [Example 68, 4-Chloro-N-{1-[1-ethyl-6-(hydroxymethyl)-1H-benzimidazol-2-yl]ethyl}benzenesulfonamide] | – |
| – | 90.3 | CCn1c([C@@H](C)NS(=O)(=O)c2cc(C)nc(C)c2)nc2ccc(C(F)(F)F)cc21 [Example 160, (R)-N-(1-(1-Ethyl-6-(trifluoromethyl)-1H-benzo[d]imidazol-2-yl)ethyl)-2,6-dimethylpyridine-4-sulfonamide] | – |
| – | 86.1 | CCn1c([C@@H](C)NS(=O)(=O)c2ccc(Cl)cc2)nc2cc(C(F)(F)F)ccc21 [Example 92, 4-Chloro-N-{(1R)-1-[1-ethyl-5-(trifluoromethyl)-1H-benzimidazol-2-yl]ethyl}benzenesulfonamide] | – |
| – | 91.6 | CCn1c([C@@H](C)NS(=O)(=O)c2ccc(C#N)cc2)nc2cnc(OC)cc21 [Example 150, (R)-4-Cyano-N-(1-(1-ethyl-6-methoxy-1H-imidazo[4,5-c]pyridin-2-yl)ethyl)benzenesulfonamide] | – |
| 8.88 | – | CCn1c([C@@H](C)NS(=O)(=O)c2ccc(Cl)cc2)nc2ccc(C(=O)N3CCOCC3)cc21 (stereo in doubt) [Example 73, 4-Chloro-N-{1-[1-ethyl-6-(morpholin-4-ylcarbonyl)-1H-benzimidazol-2-yl]ethyl}benzenesulfonamide] | – |
| – | 14.9 | CCn1c([C@@H](C)NS(=O)(=O)c2ccccn2)nc2ccc(C(F)(F)F)cc21 [Example 125, N-{(1R)-1-[1-Ethyl-6-(trifluoromethyl)-1H-benzimidazol-2-yl]ethyl}pyridine-2-sulfonamide] | – |
| – | 91.4 | CCn1c([C@@H](C)NS(=O)(=O)c2ccc(OC)cc2)nc2ccc(C(F)(F)F)cc21 [Example 122, N-{(1R)-1-[1-Ethyl-6-(trifluoromethyl)-1H-benzimidazol-2-yl]ethyl}-4-methoxybenzenesulfonamide] | – |
| 44.9 | – | CCn1c([C@@H](C)NS(=O)(=O)c2ccc(Cl)cc2)nc2cc(C(F)(F)F)c(Cl)cc21 [Example 85, 4-Chloro-N-{(1R)-1-[6chloro-1-ethyl-5-(trifluoromethyl)-1H-benzimidazol-2-yl]ethyl}benzenesulfonamide] | – |
| – | 91.8 | CCn1c([C@@H](C)NS(=O)(=O)c2ccc(C)nc2)nc2ccc(C(F)(F)F)cc21 [Example 108, (R)-N-(1-(1-Ethyl-6-(trifluoromethyl)-1H-benzo[d]imidazol-2-yl)ethyl)-6-methylpyridine-3-sulfonamide] | – |
| – | 72 | CCn1c([C@@H](C)NS(=O)(=O)c2ccc(C#N)cn2)nc2ccc(C(F)(F)F)cc21 [Example 114, (R)-5-Cyano-N-(1-(1-ethyl-6-(trifluoromethyl)-1H-benzo[d]imidazol-2-yl)ethyl)pyridine-2-sulfonamide] | – |
